One may read the viability as a read-out of living cells in per cent, often relative to untreated cells.

The data set is described as follows: in vitro. The conditions noted are these: human, hek293t cells.
As to `N#CC(=Cc1ccc(C#N)cc1)C(=O)Nc1cccc2ccccc12` [8-O16, 2-cyano-3-(4-cyanophenyl)-N-(naphthalen-1-yl)prop-2-enamide], the viability at 48 h, 25 µM was found to be 38.3%.

Take `COc1cccc(NC(=O)C(C#N)=Cc2ccc(O)cc2)c1` [8-O17, 2-cyano-3-(4-hydroxyphenyl)-N-(3-methoxyphenyl)prop-2-enamide]: the viability at 48 h, 25 µM amounted to 82.7%. As for `N#CC(=CC=Cc1ccccc1)C(=O)Nc1ccc(F)c(Cl)c1` [8-O18, N-(3-chloro-4-fluorophenyl)-2-cyano-5-phenylpenta-2,4-dienamide], the figure is 76.2%; as for `N#CC(=Cc1cccc2ccccc12)C(=O)NCc1ccccc1` [8-O19, N-benzyl-2-cyano-3-(naphthalen-1-yl)prop-2-enamide], 48%.

Regarding `Cc1cccc(C)c1NC(=O)C(C#N)=Cc1c(C)n[nH]c1C` [8-O20, 2-cyano-3-(3,5-dimethyl-1H-pyrazol-4-yl)-N-(2,6-dimethylphenyl)prop-2-enamide], the viability at 48 h, 25 µM was determined as 51.4%.

Regarding `COCCNC(=O)C(C#N)=Cc1c(F)cccc1Cl` [8-O21, 3-(2-chloro-6-fluorophenyl)-2-cyano-N-(2-methoxyethyl)prop-2-enamide], the viability at 48 h, 25 µM was found to be 94.2%. In the case of `CCc1ccc(-c2nn(-c3ccccc3)cc2C=C(C#N)C(N)=O)cc1` [8-O22, 2-cyano-3-[3-(4-ethylphenyl)-1-phenyl-1H-pyrazol-4-yl]prop-2-enamide], the viability at 48 h, 25 µM was found to be 70.6%. With `COc1cccc(NC(=O)C(C#N)=Cc2cccc(O)c2)c1` [8-P03, 2-cyano-3-(3-hydroxyphenyl)-N-(3-methoxyphenyl)prop-2-enamide], the viability at 48 h, 25 µM stood at 120%. As for `N#CC(=Cc1cccc(Cl)c1Cl)C(=O)NCc1ccco1` [8-P04, 2-cyano-3-(2,3-dichlorophenyl)-N-[(furan-2-yl)methyl]prop-2-enamide], the viability at 48 h, 25 µM came out at 52.4%. The same measure for `COc1cc(C=C(C#N)C(=O)Nc2ccc(C)cc2)cc(Cl)c1O` [8-P05, 3-(3-chloro-4-hydroxy-5-methoxyphenyl)-2-cyano-N-(4-methylphenyl)prop-2-enamide]: 95.6%.

On to `CC(C)NC(=O)C(C#N)=Cc1cccc2ccccc12` [8-P06, 2-cyano-3-(naphthalen-1-yl)-N-(propan-2-yl)prop-2-enamide], for which the viability at 48 h, 25 µM was determined as 103%.

For the compound `COc1ccc(C=C(C#N)C(=O)Nc2ccccc2C)cc1` [8-P07, 2-cyano-3-(4-methoxyphenyl)-N-(2-methylphenyl)prop-2-enamide], the viability at 48 h, 25 µM amounted to 114%.

In the case of `COc1cc(C=C(C#N)C(N)=O)ccc1OC(F)F` [8-P08, 2-cyano-3-[4-(difluoromethoxy)-3-methoxyphenyl]prop-2-enamide], the viability at 48 h, 25 µM turned out to be 82.2%. As for `N#CC(=Cc1c(Cl)cccc1Cl)C(=O)Nc1nccs1` [8-P09, 2-cyano-3-(2,6-dichlorophenyl)-N-(1,3-thiazol-2-yl)prop-2-enamide], the figure is 109%. As for `N#CC(=Cc1ccccc1)C(=O)NCc1ccc(F)cc1` [8-P10, 2-cyano-N-[(4-fluorophenyl)methyl]-3-phenylprop-2-enamide], the figure is 89%.

Consider `CCc1cccc(CC)c1NC(=O)C(C#N)=Cc1ccc(C)o1` [8-P11, 2-cyano-N-(2,6-diethylphenyl)-3-(5-methylfuran-2-yl)prop-2-enamide], for which the viability at 48 h, 25 µM amounted to 108%.

For the compound `COc1ccc2ccccc2c1C=C(C#N)C(=O)N1CCCC1` [8-P12, 3-(2-methoxynaphthalen-1-yl)-2-(pyrrolidine-1-carbonyl)prop-2-enenitrile], the viability at 48 h, 25 µM came out at 75.4%. The same measure for `Cc1ccc(C=C(C#N)C(=O)Nc2nccs2)s1` [8-P13, 2-cyano-3-(5-methylthiophen-2-yl)-N-(1,3-thiazol-2-yl)prop-2-enamide]: 109%; for `N#CC(=Cc1cccc(O)c1)C(=O)NCc1ccc(Cl)cc1` [8-P14, N-[(4-chlorophenyl)methyl]-2-cyano-3-(3-hydroxyphenyl)prop-2-enamide]: 64.4%; for `COc1ccc(C=C(C#N)C(=O)Nc2ccccc2C)cc1O` [8-P15, 2-cyano-3-(3-hydroxy-4-methoxyphenyl)-N-(2-methylphenyl)prop-2-enamide]: 120%.

As for `CC(NC(=O)C(C#N)=Cc1ccccc1F)c1ccccc1` (centres unmarked) [8-P16, 2-cyano-3-(2-fluorophenyl)-N-(1-phenylethyl)prop-2-enamide], the viability at 48 h, 25 µM was 61.8%. As for `CCCCNC(=O)C(C#N)=Cc1ccncc1` [8-P17, N-butyl-2-cyano-3-(pyridin-4-yl)prop-2-enamide], the figure is 115%; as for `COc1ccc2ccccc2c1C=C(C#N)C(=O)NC1CCCCC1` [8-P18, 2-cyano-N-cyclohexyl-3-(2-methoxynaphthalen-1-yl)prop-2-enamide], 66.4%; as for `Cc1ccc(C=C(C#N)C(=O)NCc2ccco2)o1` [8-P19, 2-cyano-N-[(furan-2-yl)methyl]-3-(5-methylfuran-2-yl)prop-2-enamide], 95.3%. Take `N#CC(=CC=Cc1ccccc1[N+](=O)[O-])C(=O)Nc1ccccc1` [8-P20, 2-cyano-5-(2-nitrophenyl)-N-phenylpenta-2,4-dienamide]: the viability at 48 h, 25 µM was 48%.

Regarding `Cc1cc(C)c(C=C(C#N)C(=O)Nc2nccs2)cc1C` [8-P21, 2-cyano-N-(1,3-thiazol-2-yl)-3-(2,4,5-trimethylphenyl)prop-2-enamide], the viability at 48 h, 25 µM was 113%.

As for `N#CC(=Cc1cccc(Cl)c1Cl)C(=O)Nc1ccc(F)cc1` [8-P22, 2-cyano-3-(2,3-dichlorophenyl)-N-(4-fluorophenyl)prop-2-enamide], the viability at 48 h, 25 µM came out at 92.8%. As for `N#CC(=Cc1cccc(F)c1F)C(N)=O` [9-A03, 2-cyano-3-(2,3-difluorophenyl)prop-2-enamide], the figure is 115%.

Turning to `N#CC(=Cc1ccc(OC(F)F)cc1)C(=O)NC1CCCCC1` [9-A04, 2-cyano-N-cyclohexyl-3-[4-(difluoromethoxy)phenyl]prop-2-enamide], the viability at 48 h, 25 µM was 66.2%. The same measure for `CC(O)=C(C#N)C(=O)Nc1ccc(C(F)(F)F)cc1` [9-A05, 2-cyano-3-hydroxy-N-[4-(trifluoromethyl)phenyl]but-2-enamide]: 90.6%; for `CCOc1ccccc1NC(=O)C(C#N)=Cc1c(C)[nH]c2ccccc12` [9-A06, 2-cyano-N-(2-ethoxyphenyl)-3-(2-methyl-1H-indol-3-yl)prop-2-enamide]: 100%.

Consider `Cc1cc(C=C(C#N)C(=O)Nc2ccccc2)c(C)n1CC(C)C` [9-A07, 2-cyano-3-[2,5-dimethyl-1-(2-methylpropyl)-1H-pyrrol-3-yl]-N-phenylprop-2-enamide], for which the viability at 48 h, 25 µM is 115%. `N#CC(=Cc1ccc(-c2ccccc2F)o1)C(=O)Nc1nccs1` [9-A08, 2-cyano-3-[5-(2-fluorophenyl)furan-2-yl]-N-(1,3-thiazol-2-yl)prop-2-enamide]: the viability at 48 h, 25 µM is 110%.

As to `CC(C)NC(=O)C(C#N)=Cc1ccccc1Cl` [9-A09, 3-(2-chlorophenyl)-2-cyano-N-(propan-2-yl)prop-2-enamide], the viability at 48 h, 25 µM was found to be 95.9%. The same measure for `COc1ccccc1NC(=O)C(C#N)=Cc1cc(C)c(C)cc1C` [9-A10, 2-cyano-N-(2-methoxyphenyl)-3-(2,4,5-trimethylphenyl)prop-2-enamide]: 115%.

The values above are taken from paper PMC11995724, “Antibiotic target discovery by integrated phenotypic and activity-based profiling of electrophilic fragments” (Cell chemical biology, 2025).
